Source: ChEMBL document CHEMBL1125402, “Conformational effects on the activity of drugs. 13. A revision of previously proposed models for the activation of alpha- and beta-adrenergic receptors” (J Med Chem, 1992)

What was measured:
[1] = target: Adrenergic receptor alpha-2 (Homo sapiens) (UniProt P08913+P18825+P18089); conditions: Cavia porcellus; Ileum
Description: Intrinsic activity was expressed as the ratio between maximal response elicited by compound and that elicited by full agonist NE towards Alpha-2 adrenergic receptor of isolated guinea pig ileum

[2] = target: Beta-1 adrenergic receptor (Cavia porcellus) (UniProt B0FL73)
[3] = target: T1, Adrenergic receptor alpha-2 (Rattus norvegicus, UniProt P22086+P19328+P22909); experiment: Compound was evaluated for alpha adrenergic binding affinity towards Alpha-2 adrenergic receptor of rat brain
T1 sequence (P22086 whole entry): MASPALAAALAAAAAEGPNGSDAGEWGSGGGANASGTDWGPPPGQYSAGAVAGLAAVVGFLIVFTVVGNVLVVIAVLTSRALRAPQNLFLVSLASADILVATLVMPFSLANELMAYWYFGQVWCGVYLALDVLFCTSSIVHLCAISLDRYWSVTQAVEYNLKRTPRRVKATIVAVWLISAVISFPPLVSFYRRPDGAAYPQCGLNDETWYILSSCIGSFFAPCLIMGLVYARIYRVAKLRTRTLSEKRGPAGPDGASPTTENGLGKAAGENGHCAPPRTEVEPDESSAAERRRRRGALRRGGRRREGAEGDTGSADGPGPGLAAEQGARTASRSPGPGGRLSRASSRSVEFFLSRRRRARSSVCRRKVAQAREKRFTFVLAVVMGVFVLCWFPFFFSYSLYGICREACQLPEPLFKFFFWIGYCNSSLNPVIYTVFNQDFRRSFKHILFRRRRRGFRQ
T1 sequence (P19328 whole entry): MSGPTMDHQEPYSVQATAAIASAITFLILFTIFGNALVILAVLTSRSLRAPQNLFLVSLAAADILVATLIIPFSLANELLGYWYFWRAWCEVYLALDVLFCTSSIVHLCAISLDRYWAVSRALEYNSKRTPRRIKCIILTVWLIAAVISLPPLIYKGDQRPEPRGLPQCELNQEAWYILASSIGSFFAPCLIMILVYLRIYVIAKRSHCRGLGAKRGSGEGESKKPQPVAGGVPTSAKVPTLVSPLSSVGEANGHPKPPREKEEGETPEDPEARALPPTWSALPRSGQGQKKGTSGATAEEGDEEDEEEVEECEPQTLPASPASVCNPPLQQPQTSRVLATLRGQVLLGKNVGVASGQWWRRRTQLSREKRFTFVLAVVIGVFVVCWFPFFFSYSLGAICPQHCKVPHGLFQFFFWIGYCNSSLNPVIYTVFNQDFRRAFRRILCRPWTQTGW
T1 sequence (P22909 whole entry): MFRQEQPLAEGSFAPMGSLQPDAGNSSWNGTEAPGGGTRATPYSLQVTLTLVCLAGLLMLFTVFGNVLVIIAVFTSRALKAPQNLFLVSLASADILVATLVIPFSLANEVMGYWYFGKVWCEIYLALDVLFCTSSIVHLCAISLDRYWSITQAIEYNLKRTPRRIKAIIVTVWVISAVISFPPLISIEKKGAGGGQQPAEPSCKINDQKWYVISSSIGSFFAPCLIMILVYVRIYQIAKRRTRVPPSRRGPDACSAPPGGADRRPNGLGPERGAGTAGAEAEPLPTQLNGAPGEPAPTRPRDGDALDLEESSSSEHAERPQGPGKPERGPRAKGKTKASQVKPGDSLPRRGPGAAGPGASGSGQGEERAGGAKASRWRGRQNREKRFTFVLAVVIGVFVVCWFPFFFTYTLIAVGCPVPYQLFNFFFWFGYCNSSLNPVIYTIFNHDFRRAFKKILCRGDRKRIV

[4] = target: T2, Adrenergic receptor alpha-1 (Rattus norvegicus) (UniProt P15823+P23944+P43140); experiment: Compound was evaluated for alpha adrenoceptor agonistic activity towards Alpha-1 adrenergic receptor of isolated rat vas deferens (exp 2); type: functional, tissue-based
[5] = target: T3, Adrenergic receptor alpha-1 (Rattus norvegicus, UniProt P15823+P23944+P43140); experiment: Binding affinity towards Alpha-1 adrenergic receptor of rat brain
T3 sequence (P15823 whole entry): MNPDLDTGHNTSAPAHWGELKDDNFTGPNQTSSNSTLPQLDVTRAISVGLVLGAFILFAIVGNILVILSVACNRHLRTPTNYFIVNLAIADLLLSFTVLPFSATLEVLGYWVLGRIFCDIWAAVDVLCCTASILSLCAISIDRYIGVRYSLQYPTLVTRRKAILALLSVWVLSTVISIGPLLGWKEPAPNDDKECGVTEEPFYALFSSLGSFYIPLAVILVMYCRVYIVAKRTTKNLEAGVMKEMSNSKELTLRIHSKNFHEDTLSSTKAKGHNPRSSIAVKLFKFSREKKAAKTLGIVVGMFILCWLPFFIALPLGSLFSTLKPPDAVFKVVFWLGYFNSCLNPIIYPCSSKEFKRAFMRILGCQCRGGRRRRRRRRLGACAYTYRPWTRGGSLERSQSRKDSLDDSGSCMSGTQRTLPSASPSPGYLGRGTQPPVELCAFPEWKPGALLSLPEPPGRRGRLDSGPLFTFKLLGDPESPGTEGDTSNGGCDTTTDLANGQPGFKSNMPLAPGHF
T3 sequence (P23944 whole entry): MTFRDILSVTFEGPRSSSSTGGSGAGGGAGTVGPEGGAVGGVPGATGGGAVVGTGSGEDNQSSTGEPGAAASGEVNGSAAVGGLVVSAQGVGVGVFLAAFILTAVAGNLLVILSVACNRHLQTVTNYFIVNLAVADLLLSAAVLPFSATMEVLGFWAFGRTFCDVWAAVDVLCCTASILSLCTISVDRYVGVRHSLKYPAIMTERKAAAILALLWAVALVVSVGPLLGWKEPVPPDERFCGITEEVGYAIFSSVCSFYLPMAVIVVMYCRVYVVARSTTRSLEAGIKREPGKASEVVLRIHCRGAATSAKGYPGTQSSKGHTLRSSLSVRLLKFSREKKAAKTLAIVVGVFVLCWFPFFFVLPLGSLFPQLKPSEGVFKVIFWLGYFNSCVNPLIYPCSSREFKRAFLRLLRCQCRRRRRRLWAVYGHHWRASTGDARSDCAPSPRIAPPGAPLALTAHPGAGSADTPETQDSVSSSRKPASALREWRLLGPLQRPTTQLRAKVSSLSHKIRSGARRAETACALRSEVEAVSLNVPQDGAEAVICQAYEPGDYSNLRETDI
T3 sequence (P43140 whole entry): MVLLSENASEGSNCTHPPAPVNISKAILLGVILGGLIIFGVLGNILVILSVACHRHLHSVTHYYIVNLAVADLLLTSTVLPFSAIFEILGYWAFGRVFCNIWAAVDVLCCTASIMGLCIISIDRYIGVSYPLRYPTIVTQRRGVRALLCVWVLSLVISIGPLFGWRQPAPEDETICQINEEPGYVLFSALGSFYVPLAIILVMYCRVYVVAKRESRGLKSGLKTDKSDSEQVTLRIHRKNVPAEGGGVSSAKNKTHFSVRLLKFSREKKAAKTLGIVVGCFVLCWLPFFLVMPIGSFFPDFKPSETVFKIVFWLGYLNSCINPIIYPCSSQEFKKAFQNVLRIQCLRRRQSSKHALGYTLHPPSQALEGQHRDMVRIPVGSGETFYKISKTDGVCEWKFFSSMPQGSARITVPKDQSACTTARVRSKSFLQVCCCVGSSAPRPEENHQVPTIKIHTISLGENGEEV

[6] = target: Beta-2 adrenergic receptor (Cavia porcellus) (UniProt Q8K4Z4)
[7] = target: T4, Beta-1 adrenergic receptor (Rattus norvegicus, UniProt P18090)
Description: Compound was evaluated for beta adrenergic binding affinity towards Beta-1 adrenergic receptor of rat brain

[8] = target: Beta-2 adrenergic receptor (Bos taurus, UniProt Q28044); experiment: Compound was evaluated for beta adrenergic binding affinity towards beta-2 receptor of bovine lung
[9] = target: T2, Adrenergic receptor alpha-1 (Rattus norvegicus); experiment: Compound was evaluated for alpha adrenoceptor agonistic activity towards alpha 1 receptor of isolated rat vas deferens (exp 1); type: functional, tissue-based
[10] = target: Beta-1 adrenergic receptor (Cavia porcellus) (UniProt B0FL73); experiment: Compound was evaluated for beta adrenoceptor agonistic activity towards beta 1 receptor of isolated guinea pig atria (exp 2); type: functional
[11] = target: Beta-2 adrenergic receptor (Cavia porcellus) (UniProt Q8K4Z4); experiment: Intrinsic activity was expressed as the ratio between maximal response elicited by compound and that elicited by full agonist ISO towards Beta-2 adrenergic receptor of isolated guinea pig tracheal strip (exp 1); type: functional
[12] = target: Beta-2 adrenergic receptor (Cavia porcellus) (UniProt Q8K4Z4); experiment: Intrinsic activity was expressed as the ratio between maximal response elicited by compound and that elicited by full agonist ISO towards beta 2 receptor of isolated guinea pig tracheal strip (exp 1); type: functional
[13] = target: Beta-2 adrenergic receptor (Cavia porcellus) (UniProt Q8K4Z4); experiment: Intrinsic activity was expressed as the ratio between maximal response elicited by compound and that elicited by full agonist ISO towards beta 2 receptor of isolated guinea pig tracheal strip (exp 2); type: functional
[14] = target: Beta-1 adrenergic receptor (Cavia porcellus) (UniProt B0FL73); experiment: Intrinsic activity was expressed as the ratio between maximal response elicited by compound and that elicited by full agonist ISO towards Beta-1 adrenergic receptor of isolated guinea pig atria (exp 1); type: functional
[15] = target: T4, Beta-1 adrenergic receptor; experiment: Compound was evaluated for beta adrenergic binding affinity towards beta-1 receptor of rat brain
[16] = target: Beta-1 adrenergic receptor (Cavia porcellus) (UniProt B0FL73); experiment: Compound was evaluated for beta adrenergic […]
[17] = target: Beta-2 adrenergic receptor (Cavia porcellus) (UniProt Q8K4Z4); remark: listed apart in the source
Description: Compound was evaluated for beta adrenoceptor agonistic activity towards Beta-2 adrenergic receptor of isolated guinea pig tracheal strip (exp 2)

[18] = target: Beta-1 adrenergic receptor (Cavia porcellus) (UniProt B0FL73); experiment: Compound was evaluated for beta adrenoceptor agonistic activity towards Beta-1 adrenergic receptor of isolated guinea pig atria (exp 1); type: functional
[19] = target: Beta-2 adrenergic receptor (Cavia porcellus) (UniProt Q8K4Z4); experiment: Compound was evaluated for beta adrenoceptor agonistic activity towards beta 2 receptor of isolated guinea pig tracheal strip (exp 1 2); type: functional
[20] = target: Adrenergic receptor alpha-1 (Homo sapiens) (UniProt P35348+P25100+P35368); experiment: Compound was evaluated for alpha adrenoceptor agonistic activity towards Alpha-1 adrenergic receptor of isolated rat vas deferens; type: functional, tissue-based; conditions: Oryctolagus cuniculus
[21] = target: T2, Adrenergic receptor alpha-1 (Rattus norvegicus); experiment: Compound was evaluated for alpha adrenoceptor agonistic activity towards alpha 1 receptor of isolated rat vas deferens; type: functional, tissue-based
[22] = target: Beta-1 adrenergic receptor (Cavia porcellus) (UniProt B0FL73); experiment: Compound was evaluated for beta adrenoceptor agonistic activity towards beta 1 receptor of isolated guinea pig atria (exp 1); type: functional
[23] = target: Beta-1 adrenergic receptor (Cavia porcellus) (UniProt B0FL73); experiment: Compound was evaluated for beta adrenoceptor agonistic activity towards Beta-1 adrenergic receptor of isolated guinea pig atria (exp 2); type: functional
[24] = target: Beta-2 adrenergic receptor (Cavia porcellus) (UniProt Q8K4Z4); experiment: Compound was evaluated for beta adrenoceptor agonistic activity towards Beta-2 adrenergic receptor of isolated guinea pig tracheal strip (exp 1 2); type: functional
[25] = target: T2, Adrenergic receptor alpha-1 (Rattus norvegicus); experiment: Compound was evaluated for alpha adrenoceptor agonistic activity towards Alpha-1 adrenergic receptor of isolated rabbit aortic strips (exp 2); type: functional
[26] = target: T2, Adrenergic receptor alpha-1 (Rattus norvegicus); experiment: Intrinsic activity was expressed as the ratio between maximal response elicited by compound and that elicited by full agonist NE towards Alpha-1 adrenergic receptor of isolated rat vas deferens; ND=No data; type: functional

Beta-1 adrenergic receptor (Cavia porcellus), sequence (B0FL73 1-467): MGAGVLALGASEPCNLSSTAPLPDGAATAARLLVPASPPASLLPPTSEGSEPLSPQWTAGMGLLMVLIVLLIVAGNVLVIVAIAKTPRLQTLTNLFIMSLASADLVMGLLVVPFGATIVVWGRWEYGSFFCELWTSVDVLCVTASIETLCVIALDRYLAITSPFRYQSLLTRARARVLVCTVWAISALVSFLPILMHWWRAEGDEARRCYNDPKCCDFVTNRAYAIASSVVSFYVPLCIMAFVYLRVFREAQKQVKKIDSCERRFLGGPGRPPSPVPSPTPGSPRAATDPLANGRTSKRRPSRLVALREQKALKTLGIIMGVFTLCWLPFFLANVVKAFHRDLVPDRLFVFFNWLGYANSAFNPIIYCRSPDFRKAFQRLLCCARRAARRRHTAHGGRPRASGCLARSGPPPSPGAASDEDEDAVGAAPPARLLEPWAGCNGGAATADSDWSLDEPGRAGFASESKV
T4 sequence (P18090 whole entry): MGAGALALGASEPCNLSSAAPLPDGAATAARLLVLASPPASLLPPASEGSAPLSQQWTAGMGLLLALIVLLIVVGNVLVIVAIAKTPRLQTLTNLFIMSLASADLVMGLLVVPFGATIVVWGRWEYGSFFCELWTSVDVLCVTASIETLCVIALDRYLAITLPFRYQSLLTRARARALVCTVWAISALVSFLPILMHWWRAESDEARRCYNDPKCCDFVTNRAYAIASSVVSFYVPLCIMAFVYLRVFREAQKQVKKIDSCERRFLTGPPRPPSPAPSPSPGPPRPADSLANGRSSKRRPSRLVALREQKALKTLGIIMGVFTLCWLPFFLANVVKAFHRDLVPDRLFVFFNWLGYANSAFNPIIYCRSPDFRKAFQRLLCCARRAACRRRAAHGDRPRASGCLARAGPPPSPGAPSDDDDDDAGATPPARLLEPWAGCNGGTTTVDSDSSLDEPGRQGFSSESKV
Beta-2 adrenergic receptor (Cavia porcellus), sequence (Q8K4Z4 whole entry, looked up): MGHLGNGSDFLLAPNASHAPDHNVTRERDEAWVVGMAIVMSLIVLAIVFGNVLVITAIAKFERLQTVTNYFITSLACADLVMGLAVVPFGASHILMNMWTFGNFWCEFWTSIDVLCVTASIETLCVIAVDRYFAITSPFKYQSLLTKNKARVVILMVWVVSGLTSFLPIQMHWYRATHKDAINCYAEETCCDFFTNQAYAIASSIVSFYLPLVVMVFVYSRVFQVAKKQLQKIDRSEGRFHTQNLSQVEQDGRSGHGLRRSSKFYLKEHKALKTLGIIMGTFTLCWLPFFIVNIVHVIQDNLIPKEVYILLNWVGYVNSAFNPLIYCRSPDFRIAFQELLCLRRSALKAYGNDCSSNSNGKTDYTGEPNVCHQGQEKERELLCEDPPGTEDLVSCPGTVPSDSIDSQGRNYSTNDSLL
Beta-2 adrenergic receptor, sequence (Q28044 whole entry): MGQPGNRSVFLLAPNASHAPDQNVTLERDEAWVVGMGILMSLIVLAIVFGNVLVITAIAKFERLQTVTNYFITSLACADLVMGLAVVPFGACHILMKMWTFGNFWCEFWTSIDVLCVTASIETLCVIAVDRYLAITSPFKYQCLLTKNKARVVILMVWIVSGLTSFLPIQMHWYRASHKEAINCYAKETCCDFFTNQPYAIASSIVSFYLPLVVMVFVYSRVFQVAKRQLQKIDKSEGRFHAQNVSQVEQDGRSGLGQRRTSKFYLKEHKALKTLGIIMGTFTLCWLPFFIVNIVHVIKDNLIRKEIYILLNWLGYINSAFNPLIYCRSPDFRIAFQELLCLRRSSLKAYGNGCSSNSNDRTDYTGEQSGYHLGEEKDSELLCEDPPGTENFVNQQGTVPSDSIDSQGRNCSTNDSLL

Row | SMILES | pD2 [1] | pD2 [2] | Ki [3] [µM] | Ki [5] [µM] | pD2 [6] | Ki [7] [µM] | Ki [8] [µM] | also measured
1 | Oc1ccc(C2(O)CCCNC2)cc1O (stereo not drawn) | 5.56 | 3.81 | 0.5 | 15 | 4.44 | > 100 | > 100 | Intrinsic activity [4]: 0.95; pD2 [9]: 4.76
2 | CC(C)N1CCOC(c2ccc(O)c(O)c2)C1 (stereo not drawn) | 5 | – | 5.1 | 6.7 | – | – | 36 | pD2 [10]: 5.74; pD2 [11]: 5.91; Intrinsic activity [12]: 0.87; Intrinsic activity [13]: 0.93; Intrinsic activity [14]: 0.88; Ki [15]: 48 µM; pD2 [16]: 4.62; pD2 [17]: 6.34; Intrinsic activity [18]: 0.77
3 | N[C@@H]1CCc2c(ccc(O)c2O)[C@H]1O | 5.32 | – | 2.9 | > 100 | – | 8 | 0.12 | pD2 [19]: 7.49; pD2 [20]: < 3.5; pD2 [21]: 3.7; pD2 [22]: 4.96; Intrinsic activity [23]: 1; pD2 [24]: 7.78; pD2 [18]: 6.74; Intrinsic activity [25]: 0.87
4 | CC(C)NC1CCc2cc(O)c(O)cc2[C@H]1O (stereo partly drawn) | 5.72 | 4.44 | 1.57 | 1.2 | 6.17 | > 100 | > 100 | pD2 [26]: < 3.5
